Measured values reported in patent US20240216336A1, “CLOTRIMAZOLE AS A TREATMENT FOR IMMUNODEFICIENCY DISORDERS” (Northwestern University, priority 2020, published 2024).

How the values were obtained:
BMDMs [1] = assay: Inflammatory cytokine mRNA expression (quantitative RT-PCR) in BMDMs; format: cell-based, mouse; conditions: 4 hrs LPS (200 ng/ml) + 1400W (50 μM)
Method: (§1) BMDMs were isolated from ΔE1HK1 and WT mice as previously reported (Rodriguez et al., 2019). Briefly, bone marrow was isolated from the tibia and femur of 8-10-week-old mice by puncturing one end of the femur and tibia with a 27g needle and placing it in a 0.5 ml tube with a hole punched in the bottom. The 0.5 ml tube containing the bone was then placed in a 1.75 ml tube and centrifuged at 5,000×g for 3.5 minutes. Bone marrow was then collected into the 1.75 ml tube and resuspend in 1 ml of RBC lysis buffer (abcam) for 1 minute and then transferred to a 50 ml tube with 4 ml RBC lysis buffer and incubated for 4 minutes. Next, 35 ml of PBS was added and centrifuged at 300×g for 5 min and supernatant was then decanted and cell pellet was re-suspended in complete RPMI with 20 ng/ml mCSF (Preprotech). Cells were counted using a hemocytometer and plated in 10 cm tissue culture plates at a density of 3-million cells/plate. Cells were cultured with 20 ng/mL mCSF to induce differentiation into BMDMs. Media was changed every 2 days and BMDMs were harvested by scraping on day 6 and plated in 12 well plates at a density of 1-million cells/well for mRNA extraction experiments. BMDMs were stimulated in the same manner as peritoneal macrophages (LPS dose for BMDMs was 200 ng/ml).
(§2) RNA was isolated from cells or tissues using RNA-STAT60 (Teltest) followed by chloroform extraction and precipitation. Reverse transcription was carried out using qScript cDNA Synthesis Kit (Quanta Bio). The resulting cDNA was amplified quantitatively using PerfeCTa SYBR Green Mix (Quanta Bio) on a 7500 Fast Real-time PCR System (Applied Biosystems). The relative gene expression was determined using differences in Ct values between gene of interest and house-keeping control genes. Complete list of primers can be found in Key Reagents Table (Table 1).

GAPDH [2] = assay: GAPDH IP and TMT switch S-nitrosylation western blot in BMDMs; format: cell-based, mouse; conditions: LPS (200 ng/ml) treated BMDMs ±1400W
Method: GAPDH immunoprecipitation of HepG2 and BMDM cells was performed and nitrosylated cysteines were replaced with covalent binding of TMT using Pierce S-Nitrosylation western blot kit according to manufactures protocol. Briefly, free cysteines were blocked with MMTS reagent, lysates were treated with iodoTMT/ascorbate to induce replacement of unstable S-NO with stable S-TMT moiety. Western blot was then run on the TMT-replaced lysates and probed with GAPDH (dilution 1:8,000) and anti-TMT (dilution 1:1000).

ΔE1HK1 mice = assay: In vivo LPS i.p. injection with 1400W: splenic mRNA and serum ELISA of inflammatory cytokines; design: species or system mouse; conditions: LPS (15 mg/kg) i.p. + 1400W (10 mg/kg) i.p.
Method: as §2
LPS induced sepsis model in mice was approved by Northwestern University Institutional Animal Care and Use Committee. For short term LPS induced cytokine quantification, C57/B16 mice (aged 10-12 weeks) were treated i.p. with or without 1400W (10 mg/kg) for 2 hrs prior to i.p. treatment with ultrapure 05:B55 LPS from Invivogen (15 mg/kg) i.p. for 4 hours. Whole blood samples were harvested via cardiac puncture after mice were euthanized. Cytokine production in serum from whole blood was measured using the Mouse IL-1β (DY401), IL-6 (DY406), and TNFα (DY410) ELISAs from R&D. For survival studies, Crude 05:B55 LPS (Sigma) was administrated i.p. at a sub-lethal dose of 15 mg/kg and mice were monitored over 72 hrs, every 2-4 hrs for survival and signs of deterioration to determine humane endpoints (Shrum et al., 2014).

BMDMs [3] = assay: Seahorse ECAR trace of BMDMs; format: cell-based, mouse; conditions: 5 hrs LPS (200 ng/ml) ±1400W (50 μM)
Method: The day before the assay, the Seahorse cartridge was placed in the XF calibrant and incubated overnight at 37° C. On the day of the assay, cells were seeded into the Seahorse 96-well plate at 15,000 cells/80 μl per well for HepG2 cells or 100,000 cells/80 μl per well for BMDMs. The plates were incubated at RT for 1 hour in glucose free complete DMEM or RPMI without bicarbonate or phenol-red to allow even distribution of cells across the well floor. Before placing the sample plates in the Seahorse XF96 Analyzer, medium volume was adjusted to 175 μl in each well. 11 mM or 25 mM glucose for HepG2 cells or BMDMs respectively, Oligomycin at 2 μM, CCCP at 10 μM, and 2DG at […] each, diluted in DMEM, were injected sequentially into each well including control wells, containing only medium, following the standard Seahorse protocol. For acute injection of LPS, the first port of the drug cartridge was replaced with LPS at 200 ng/ml.

GAPDH [4] = assay: GAPDH activity normalized to total protein in PMs from NC and HFD mice; format: cell-based, mouse; conditions: LPS (300 ng/ml) + 1400W (50 μM) for 4 hrs
Method: Peritoneal macrophages were isolated from 8-10-week-old ΔE1HK1 and littermate control WT mice by peritoneal lavage as described previously (Ray and Dittel, 2010). Briefly, mice were euthanized and the peritoneal cavity was injected with PBS supplemented with 5% FBS using a 27g needle. The abdominal wall was gently agitated to dislodge peritoneal cells. Using a fresh 25g needle, the peritoneal lavage (PBS and peritoneal cells) was aspirated and collected. Cells were then centrifuged at 500 g for 10 min and re-suspended in 1 mL of complete RPMI (Corning) supplemented with 10% FBS (Atlanta Biologicals), 2 mM glutamine (HyClone), 1 mM HEPES (Corning) and 1 mM pyruvate (Corning). Stimulation with LPS (Invivogen) was performed the next day. 300 ng/ml of LPS was given to the cells for 4-6 hrs with or without the following drugs; OT (50 μM), 6-AN (1 mM), 1400W (50 μM), or CGP3466 (50 nM).
(§3) The following kits were used according to the manufacturer's instructions: Promega NADP/NADPH quantification kit (G9081) and […] (G9071); Glyceraldehyde-3-Phosphate Dehydrogenase Activity Assay kit (abcam); ELISAs for IL-1β (DY401), IL-6 […].

PMs = assay: IL-1β ELISA from media of PMs from NC and HFD mice; format: cell-based, mouse; conditions: LPS (300 ng/ml) 6 hrs and ATP (2.5 mM) 30 min, 1400W
GAPDH [5] = target: T1, GAPDH (Mus musculus, UniProt P16858); assay: GAPDH activity normalized to total protein in BMDMs; format: cell-based; design: endogenous in cells; conditions: LPS (200 ng/ml) + 1400W (50 μM)
Method: as §1, with “Media was changed every 2 days and BMDMs were harvested by scraping on day 6 and plated in 12 well plates at a density of 1-million cells/well for mRNA extraction experiments. BMDMs were stimulated in the same manner as peritoneal macrophages (LPS dose for BMDMs was 200 ng/ml).” left out
as §3

RAW264.7 cells = assay: Inflammatory cytokine mRNA expression (quantitative RT-PCR) in RAW264.7 cells; format: cell-based, mouse
Method: (§4) RAW264.7 cells were a gift from Jason A. Wertheim MD, PhD. HepG2 and HEK293T cells were obtained from ATCC. RAW264.7, HEK293T, and HepG2 cells were cultured in Dulbecco's Modified Eagle's Medium (DMEM) (Corning) supplemented with 10% FBS (Atlanta Biologicals), 2 mM glutamine (HyClone), and 1 mM sodium pyruvate (Corning). […]
as §2

HK1 = target: T2, HK1 (Mus musculus, UniProt P17710); assay: Immunofluorescence of HK1 and mitochondria (MT-Red) with colocalization analysis; format: cell-based; conditions: WT BMDMs; CLT (20 μM)
T2 construct: IF of HK1 and mitochondria (MT-Red) imaging in RAW264.7 cells±clotrimazole (CLT) (20 μM); endogenous in cells; the running text says WT BMDMs
T2 sequence (P17710 1-918 isoform P17710-3): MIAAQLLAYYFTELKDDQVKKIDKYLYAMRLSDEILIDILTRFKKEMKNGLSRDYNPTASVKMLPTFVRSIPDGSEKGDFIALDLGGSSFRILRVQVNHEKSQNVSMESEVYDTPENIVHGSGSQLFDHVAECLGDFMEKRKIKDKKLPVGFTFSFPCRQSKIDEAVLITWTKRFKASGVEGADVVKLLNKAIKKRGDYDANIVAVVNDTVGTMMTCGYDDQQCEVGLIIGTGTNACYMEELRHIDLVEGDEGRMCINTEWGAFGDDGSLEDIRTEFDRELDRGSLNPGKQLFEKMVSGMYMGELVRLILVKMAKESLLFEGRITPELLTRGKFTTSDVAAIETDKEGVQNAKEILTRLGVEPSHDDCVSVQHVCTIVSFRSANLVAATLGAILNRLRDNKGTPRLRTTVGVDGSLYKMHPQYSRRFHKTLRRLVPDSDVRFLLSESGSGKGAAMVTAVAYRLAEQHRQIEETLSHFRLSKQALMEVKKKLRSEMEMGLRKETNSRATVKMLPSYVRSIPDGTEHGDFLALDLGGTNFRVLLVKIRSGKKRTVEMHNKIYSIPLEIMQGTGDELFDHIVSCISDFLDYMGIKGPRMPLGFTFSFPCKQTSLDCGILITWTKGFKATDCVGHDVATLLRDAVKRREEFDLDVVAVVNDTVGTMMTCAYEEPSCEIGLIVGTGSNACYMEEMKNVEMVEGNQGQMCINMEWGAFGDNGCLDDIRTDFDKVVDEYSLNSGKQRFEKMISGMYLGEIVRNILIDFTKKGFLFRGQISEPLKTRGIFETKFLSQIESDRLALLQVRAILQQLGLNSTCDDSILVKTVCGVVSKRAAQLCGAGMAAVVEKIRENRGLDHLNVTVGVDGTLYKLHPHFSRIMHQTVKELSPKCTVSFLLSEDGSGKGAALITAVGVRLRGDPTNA
Method: Glass-bottom confocal dishes (35 mm; VWR) were coated with 60 nM fibronectin (Sigma-Aldrich), diluted in 0.1% gelatin overnight. Before plating cells, coated confocal dishes were washed twice with PBS. BMDMs (100,000 cells/well), PMs (100,000 cells/well), HepG2 (50,000 cells/well), or RAW264.7 (50,000 cells/well) cells were plated in their respective growth media (complete DMEM or RPMI) and allowed to settle overnight before immunofluorescence (IF) staining. For fixed cell immunofluorescence (IF), cells were plated in 6-well plates (Corning) containing 15 mm glass coverslips (Fisher-Scientific) coated in gelatin and fibronectin. Prior to fixation, growth media was removed and cells were washed 2× with PBS. Cells were fixed with 1 ml of ice-cold 4% formaldehyde for 10 min at room temperature (4% formaldehyde prepared from 16% stock and diluted in PBS). After fixing the cells, plates were washed with PBS 2× and permeabilized with 0.3% triton-X-100 in PBS for 10 min at room temperature. Then, cells were blocked with 10% FBS/PBS for 1 hour at room temperature and subsequently treated with primary antibody diluted in 10% FBS/PBS solution over-night. The next day, secondary antibody was diluted in 10% FBS/PBS at 1:1000 and incubated for 2 hrs at room temperature. […] Images were quantified using ImageJ.

GAPDH [6] = target: T1, GAPDH; assay: GAPDH activity normalized to total protein in RAW264.7 cells; format: cell-based; design: endogenous in cells; host or cells: RAW264.7; conditions: ±CLT (20 μM)
Method: as §4, §3

[7] = CLT (20 μM) treated cells vs vehicle treated controls
[8] = RAW264.7 cells, koningic acid, LPS

T1 sequence (P16858 whole entry): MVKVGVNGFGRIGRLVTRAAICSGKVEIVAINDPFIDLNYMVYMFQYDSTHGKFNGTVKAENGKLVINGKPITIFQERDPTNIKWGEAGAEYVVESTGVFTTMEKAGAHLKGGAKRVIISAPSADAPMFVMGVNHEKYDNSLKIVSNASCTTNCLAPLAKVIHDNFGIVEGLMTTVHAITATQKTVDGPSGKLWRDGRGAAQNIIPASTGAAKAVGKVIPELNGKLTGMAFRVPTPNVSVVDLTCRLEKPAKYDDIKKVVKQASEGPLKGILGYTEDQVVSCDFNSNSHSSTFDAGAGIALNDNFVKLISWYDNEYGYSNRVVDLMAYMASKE

`CC(N)=NCc1cccc(CN)c1.Cl.Cl` [1400W] was tested, and the “hyper-inflammatory response of ΔE1HK1 BMDMs, IL-1β mRNA” value (BMDMs [1]) was “reversal”, the “hyper-inflammatory response of ΔE1HK1 BMDMs, IL-6 mRNA” value (BMDMs [1]) was “reversal” and the “hyper-inflammatory response of ΔE1HK1 BMDMs, TNFα mRNA” value (BMDMs [1]) was “reversal”. For the same molecule, the “higher GAPDH nitrosylation in BMDMs from ΔE1HK1 mice” value (GAPDH [2]) was “reversible”, the “hyper-inflammatory response in ΔE1HK1 mice, serum ELISA IL-1β” value (ΔE1HK1 mice) was “rescue” and the “hyper-inflammatory response in ΔE1HK1 mice, serum ELISA IL-6” value (ΔE1HK1 mice) was “rescue”. For the same molecule, the “hyper-inflammatory response in ΔE1HK1 mice, serum ELISA TNFα” value (ΔE1HK1 mice) was “rescue”, the “hyper-inflammatory response in ΔE1HK1 mice, splenic IL-1β mRNA” value (ΔE1HK1 mice) was “rescue” and the “hyper-inflammatory response in ΔE1HK1 mice, splenic IL-6 mRNA” value (ΔE1HK1 mice) was “rescue”. For the same molecule, the “hyper-inflammatory response in ΔE1HK1 mice, splenic TNFα mRNA” value (ΔE1HK1 mice) was “rescue”, the “differences in ECAR between ΔE1HK1 and WT BMDMs” value (BMDMs [3]) was “eliminated the differences” and the “lower GAPDH activity in PMs of HFD mice” value (GAPDH [4]) was “rescued”. The “elevation in IL-1β in HFD PMs (ELISA)” value (PMs) was “reversed” and the “GAPDH activity of ΔE1HK1 BMDMs” value (GAPDH [5]) was “restored to WT levels”.
`Clc1ccccc1C(c1ccccc1)(c1ccccc1)n1ccnc1` [CLT, Clotrimazole] was tested, and the “IL-1β mRNA after LPS stimulation” value (RAW264.7 cells; [7]) was “significant increase”, the “IL-6 mRNA after LPS stimulation” value (RAW264.7 cells; [7]) was “significant increase” and the “TNFα mRNA after LPS stimulation” value (RAW264.7 cells; [7]) was “significant increase”. For the same molecule, the “cytokine mRNA levels at baseline” value (RAW264.7 cells; CLT (20 μM), no LPS) was “minimal change”, the “production of inflammatory cytokines including IL-1β, TNFα, and IL-6” value (RAW264.7 cells; macrophages in vitro (summary statement)) was “elevated production” and the “HK1 dislocation from the mitochondria” value (HK1) was “significant increase”. The “GAPDH activity in RAW264.7 cells after LPS treatment” value (GAPDH [6]) was “significant decrease”.
In the case of `CC(C)[C@H]1CC[C@@]2(CO2)[C@H]2C(=O)OCC(C(=O)O)=C[C@H]12` [koningic acid], the “IL-1β mRNA expression after LPS treatment” value (RAW264.7 cells; [8]) is reported as “increased”, the “IL-6 mRNA expression after LPS treatment” value (RAW264.7 cells; [8]) is reported as “increased” and the “TNFα mRNA expression after LPS treatment” value (RAW264.7 cells; [8]) is reported as “increased”.
